The source of these data is US20230270738A1, “METHODS OF TREATING AGITATION ASSOCIATED WITH ALZHEIMER'S DISEASE” (Avanir Phrmaceuticals Inc., priority 2020, published 2023).

A short description of series [1]: Plasma concentrations of d6-DM, d6-DM metabolites and Q by CYP2D6 metabolizer group. In kind it is in vivo, human. The following applies: for Changes in plasma concentrations from Week 6 to Week 12: all patients combined, sample 0-3 hours after morning dose; for Plasma concentration by CYP2D6 metabolizer group: poor, intermediate, extensive, ultra-rapid metabolizers; for Plasma concentration/exposure in relation to d6-DM dose of AVP-786: AVP-786-28 vs AVP-786-42.63. Here is the method: Plasma samples were separated by centrifugation and frozen at −20° C. until assayed at the analytical unit.

For a further series, the target named is P-glycoprotein (Homo sapiens, UniProt P08183). The following applies: cited from earlier work.
A further series concerns the target sigma-1 receptor (Homo sapiens, UniProt Q99720). The following applies: cited from earlier work.

“Also recorded” adds a separate entry of the source. Counter-ions that a name gives are not always drawn.

Chain of P-glycoprotein (P08183 whole entry): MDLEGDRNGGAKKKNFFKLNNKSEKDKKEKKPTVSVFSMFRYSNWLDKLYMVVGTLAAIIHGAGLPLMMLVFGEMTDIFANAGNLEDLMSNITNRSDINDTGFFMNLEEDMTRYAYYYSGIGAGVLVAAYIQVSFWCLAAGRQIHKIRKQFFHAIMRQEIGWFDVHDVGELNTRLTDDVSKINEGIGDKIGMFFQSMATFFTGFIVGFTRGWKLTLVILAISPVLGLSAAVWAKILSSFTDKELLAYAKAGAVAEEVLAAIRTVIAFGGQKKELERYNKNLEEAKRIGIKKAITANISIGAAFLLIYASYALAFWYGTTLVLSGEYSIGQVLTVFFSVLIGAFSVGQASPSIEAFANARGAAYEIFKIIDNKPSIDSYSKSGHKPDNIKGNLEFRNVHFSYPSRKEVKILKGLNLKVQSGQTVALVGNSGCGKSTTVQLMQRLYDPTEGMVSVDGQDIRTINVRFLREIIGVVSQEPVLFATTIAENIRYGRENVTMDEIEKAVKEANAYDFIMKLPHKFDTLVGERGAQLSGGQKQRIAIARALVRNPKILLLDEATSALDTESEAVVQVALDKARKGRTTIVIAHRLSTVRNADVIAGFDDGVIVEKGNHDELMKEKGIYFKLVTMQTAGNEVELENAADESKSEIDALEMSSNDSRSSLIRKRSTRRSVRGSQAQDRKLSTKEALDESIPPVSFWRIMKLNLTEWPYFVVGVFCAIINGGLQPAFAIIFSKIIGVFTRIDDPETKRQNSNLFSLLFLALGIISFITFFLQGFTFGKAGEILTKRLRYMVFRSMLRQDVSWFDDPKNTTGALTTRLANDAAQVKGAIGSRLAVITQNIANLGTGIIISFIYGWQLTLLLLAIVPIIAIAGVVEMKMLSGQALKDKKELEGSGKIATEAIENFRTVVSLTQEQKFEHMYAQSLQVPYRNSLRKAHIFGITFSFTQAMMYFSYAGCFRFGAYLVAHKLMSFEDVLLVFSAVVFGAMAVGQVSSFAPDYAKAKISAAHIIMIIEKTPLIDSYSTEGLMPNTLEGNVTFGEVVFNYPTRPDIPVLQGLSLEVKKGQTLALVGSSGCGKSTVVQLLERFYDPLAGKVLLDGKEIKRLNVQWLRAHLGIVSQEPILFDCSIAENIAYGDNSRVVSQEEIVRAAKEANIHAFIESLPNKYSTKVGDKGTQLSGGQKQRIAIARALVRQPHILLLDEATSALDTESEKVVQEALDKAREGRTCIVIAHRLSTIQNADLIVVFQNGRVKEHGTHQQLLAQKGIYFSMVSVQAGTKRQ
Chain of sigma-1 receptor (Q99720 whole entry, species assumed): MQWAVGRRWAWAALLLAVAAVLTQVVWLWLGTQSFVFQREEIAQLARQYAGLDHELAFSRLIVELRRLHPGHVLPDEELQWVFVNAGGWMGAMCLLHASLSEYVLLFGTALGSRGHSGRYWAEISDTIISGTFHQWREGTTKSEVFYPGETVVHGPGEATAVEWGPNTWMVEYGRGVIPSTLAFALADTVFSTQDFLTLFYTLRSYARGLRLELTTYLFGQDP

Regarding `C=C[C@H]1C[N@@]2CC[C@H]1C[C@@H]2[C@@H](O)c1ccnc2ccc(OC)cc12` [Q, Quinidine, reference compound], the “Changes in plasma concentrations from Week 6 to Week 12” value (from here on “Changes in plasma concentrations”) in series [1] is given as “did not appear to be any significant changes”.

Regarding `C=C[C@H]1C[N@]2CC[C@@H]1C[C@@H]2[C@@H](O)c1ccnc2ccc(OC)cc12` [Quinidine, quinidine sulfate], the P-glycoprotein inhibition entry on P-glycoprotein is listed as “P-glycoprotein inhibitor”.

Turning to `[2H]C([2H])([2H])Oc1ccc2c(c1)C13CCCCC1C(C2)NCC3` (centres unmarked) [d3-3-MM, d3-3-methoxymorphinan], in series [1], the “Changes in plasma concentrations” value is given as “did not appear to be any significant changes”; the “Plasma concentration by CYP2D6 metabolizer group” value was “highest in the poor and intermediate metabolizer groups and lowest in the ultra-rapid metabolizer group”.

With `[2H]C([2H])([2H])N1CCC23CCCCC2C1Cc1ccc(O)cc13` (centres unmarked) [d3-DX, d3-dextrorphan], in series [1], the “Plasma concentration/exposure in relation to d6-DM dose of AVP-786” value is recorded as “generally higher; also recorded: increased with the increase in d6-DM dose”; the “Changes in plasma concentrations” value is listed as “did not appear to be any significant changes”; the “Plasma concentration by CYP2D6 metabolizer group” value is “lowest in the poor metabolizer group and highest in the extensive and ultra-rapid metabolizer groups”.

As to `[2H]C([2H])([2H])Oc1ccc2c(c1)[C@]13CCCC[C@@H]1[C@H](C2)N(C([2H])([2H])[2H])CC3` [d6-DM, deuterated [d6]-dextromethorphan hydrobromide], the receptor binding entry on sigma-1 receptor is given as “binds to the sigma-1 receptor”. In addition, the “Plasma concentration/exposure in relation to d6-DM dose of AVP-786” value in series [1] (hydrobromide) was “generally higher; also recorded: increased with the increase in d6-DM dose”. In addition, in series [1], the “Changes in plasma concentrations” value is given as “did not appear to be any significant changes”; the “Plasma concentration by CYP2D6 metabolizer group” value was “highest in the poor and intermediate metabolizer groups and lowest in the ultra-rapid metabolizer group”.
